IC50 data for 20 molecules are collected here from patent US6685617B1, “Inhibitors of α4β1 mediated cell adhesion” (Pharmacia & Upjohn Company, priority 1998, dated 2004).

For the assay, the target named is T1, α4β1 integrin (Jurkat cell adhesion to immobilized CS-1 derived peptide CLHPGEILDVPST) (Homo sapiens, UniProt P05556+P13612).
T1 construct: 100 μl of Jurkat cells (2.5×10^6 cells/ml) in DMEM plus BSA; host or cells: Jurkat T-cell line
The assay can be described thus: Jurkat-CS-1 assay. The format is cell-based. The conditions noted are these: Jurkat cells on CS-1 peptide coated plates; read-out: JK/CS-1 (Jurkat CS-1 Assay IC50 value range). On the procedure:
The CS-1 derived peptide, CLHPGEILDVPST, and the scrambled control peptide, CLHGPIELVSDPT, were synthesized on a Beckman 990 synthesizer using t-Boc methodology. The peptides were immobilized onto microtiter plates using the heterobifunctional crosslinker 3-(2-pyridyldithio)propionic acid N-hydroxysuccinimide ester (SPDP) as reported by Pierschbacher et al., Proc. Natl. Acad. USA, 80:1224-1227 (1983). Microtiter plates were coated with 20 μg/ml HSA for 2 hr. at room temperature, washed once with PBS and derivatized with 10 μg/ml SPDP for 1 hr. After washing, 100 μl of a 100 μg/ml cysteine containing peptide solution which had been recently dissolved was added to the wells and allowed to crosslink to the plates overnight at 4° C. Unbound peptide was removed from plates by washing with PBS. To block non-reacted sites, the plates are coated with 100 μl of a 2.5 mg/ml BSA solution in PBS for 1 hr. at 37° C. 100 μl of Jurkat cells (2.5×10^6 cells/ml) in DMEM plus BSA (2.5 mg/ml) was mixed with an appropriate concentration of the compound to be tested and the mixture was added to peptide coated dishes and incubated for 1 hr. at 37° C. Generally 100, 20, 5 and 1.25 μM concentrations of the compound were tested.
Following this incubation the plates were washed once with PBS and the attached cells were fixed with 3% paraformaldehyde in PBS and stained with 0.5% toluidine blue in 3.7% formaldehyde. The cells were stained overnight at room temperature and the optical density at 590 nm of toluidine blue stained cells was determined using a vertical pathway spectrophotometer to quantitate attachment (VMAX Kinetic Microplate Reader, Molecular Devices, Menlo Park, Calif.). This procedure is a modification of a previously published method (Cardarelli et al, J. Biol. Chem., 269:18668-18673 (1994) and Cardarelli et al, Proc. Natl. Acad. Sci. USA, 83:2647-2651 (1986)).

T1 sequence (P13612 34-1032): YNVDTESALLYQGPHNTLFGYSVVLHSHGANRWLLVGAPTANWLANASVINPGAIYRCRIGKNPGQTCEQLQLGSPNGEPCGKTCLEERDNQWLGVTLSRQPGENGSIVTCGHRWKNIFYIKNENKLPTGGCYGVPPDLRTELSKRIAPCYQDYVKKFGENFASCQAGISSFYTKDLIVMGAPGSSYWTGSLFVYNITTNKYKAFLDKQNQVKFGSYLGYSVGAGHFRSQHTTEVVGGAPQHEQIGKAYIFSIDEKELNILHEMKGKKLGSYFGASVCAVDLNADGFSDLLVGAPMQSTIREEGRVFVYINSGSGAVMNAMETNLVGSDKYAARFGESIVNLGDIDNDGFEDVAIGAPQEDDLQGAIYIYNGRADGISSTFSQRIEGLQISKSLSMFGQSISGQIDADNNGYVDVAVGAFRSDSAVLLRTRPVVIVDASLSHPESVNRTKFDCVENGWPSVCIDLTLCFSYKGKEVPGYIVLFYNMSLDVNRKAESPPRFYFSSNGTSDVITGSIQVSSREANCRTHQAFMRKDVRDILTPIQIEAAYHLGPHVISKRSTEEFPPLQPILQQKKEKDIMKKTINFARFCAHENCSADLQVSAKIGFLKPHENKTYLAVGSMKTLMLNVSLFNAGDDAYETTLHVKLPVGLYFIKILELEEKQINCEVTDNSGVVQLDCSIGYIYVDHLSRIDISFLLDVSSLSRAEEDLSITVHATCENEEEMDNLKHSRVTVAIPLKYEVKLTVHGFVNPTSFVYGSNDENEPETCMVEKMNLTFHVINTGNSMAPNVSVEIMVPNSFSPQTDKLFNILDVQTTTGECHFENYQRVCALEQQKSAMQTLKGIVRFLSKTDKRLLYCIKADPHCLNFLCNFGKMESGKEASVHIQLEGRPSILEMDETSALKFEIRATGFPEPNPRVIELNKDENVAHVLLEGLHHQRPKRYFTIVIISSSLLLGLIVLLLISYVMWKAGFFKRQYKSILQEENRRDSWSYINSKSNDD
T1 sequence (P05556 21-798): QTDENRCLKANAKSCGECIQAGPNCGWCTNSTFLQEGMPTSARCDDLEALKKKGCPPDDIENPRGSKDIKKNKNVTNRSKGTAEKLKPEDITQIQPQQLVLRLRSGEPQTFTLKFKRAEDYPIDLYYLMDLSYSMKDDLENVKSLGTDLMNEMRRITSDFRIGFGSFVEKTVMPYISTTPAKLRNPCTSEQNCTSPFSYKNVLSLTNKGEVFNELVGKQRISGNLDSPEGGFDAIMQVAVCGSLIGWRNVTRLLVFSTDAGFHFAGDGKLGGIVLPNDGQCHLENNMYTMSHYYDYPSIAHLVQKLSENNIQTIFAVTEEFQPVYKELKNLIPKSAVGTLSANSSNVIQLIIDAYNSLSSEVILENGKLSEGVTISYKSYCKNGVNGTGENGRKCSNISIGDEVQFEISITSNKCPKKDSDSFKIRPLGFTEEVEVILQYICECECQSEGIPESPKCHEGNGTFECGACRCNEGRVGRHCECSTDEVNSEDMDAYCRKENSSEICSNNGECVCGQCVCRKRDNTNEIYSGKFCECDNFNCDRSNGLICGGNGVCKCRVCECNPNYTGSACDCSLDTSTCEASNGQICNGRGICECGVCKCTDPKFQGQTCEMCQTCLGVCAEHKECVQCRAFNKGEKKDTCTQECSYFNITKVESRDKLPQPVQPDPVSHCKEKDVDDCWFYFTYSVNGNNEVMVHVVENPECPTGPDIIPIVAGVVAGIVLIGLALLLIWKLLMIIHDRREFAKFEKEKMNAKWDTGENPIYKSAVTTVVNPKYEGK

As for `O=C(Nc1ccc(C[C@H](NC(=O)C2CSC3COC(=O)N32)C(=O)O)cc1)c1c(Cl)cccc1Cl` (single isomer, unassigned) [Example 281, 4-[(2,6-Dichlorobenzoyl)amino]-N-[(tetrahydro-5-oxo-5H-thiazolo[3,2-c]oxazol-3-yl)carbonyl]-L-phenylalanine], the IC50 is 50 to 750 nM.
For `O=C(Nc1ccc(C[C@H](NC(=O)C2CSC3COC(=O)N32)C(=O)O)cc1)c1c(Cl)cccc1Cl` (single isomer, unassigned) [Example 282, 4-[(2,6-Dichlorobenzoyl)amino]-N-[(tetrahydro-5-oxo-5H-thiazolo[3,2-c]oxazol-3-yl)carbonyl]-L-phenylalanine], the IC50 is no more than 50 nM.
As for `CCOC(=O)N1CSCC1C(=O)N[C@@H](Cc1ccc(NC(=O)c2c(Cl)cccc2Cl)nc1)C(=O)O` (stereo in doubt) [Example 290, [S-(R*,R*)]-4-[[[1-Carboxy-2-[2-[(2,6-dichlorobenzoyl)amino]-5-pyridinyl]ethyl]amino]carbonyl]-3-thiazolidinecarboxylic Acid Ethyl Ester], the IC50 was no more than 50 nM.
Take `CCOC(=O)N1CSC[C@@H]1C(=O)N[C@@H](Cc1ccc(NC(=O)c2ccccc2)cc1)C(=O)O` [Example 268, (4S)-4-[[[(1S)-1-Carboxy-2-[4-[(benzoyl)amino]phenyl]ethyl]amino]carbonyl]-3-thiazolidinecarboxylic Acid 3-Ethyl Ester]: the IC50 was no less than 750 nM.
In the case of `CCOC(=O)N1CSC[C@@H]1C(=O)N[C@@H](Cc1ccc(NC(C)=O)cc1)C(=O)O` [Example 269, (4S)-4-[[[(1S)-1-Carboxy-2-[4-[(acetyl)amino]phenyl]ethyl]amino]carbonyl]-3-thiazolidinecarboxylic Acid 3-Ethyl Ester], the IC50 is no less than 750 nM.
`CCOC(=O)N1CSC[C@@H]1C(=O)N[C@@H](Cc1ccc(NC(=O)CCc2ccccc2)cc1)C(=O)O` [Example 270, (4S)-4-[[[(1S)-1-Carboxy-2-[4-[(3-phenylpropanoyl)amino]phenyl]ethyl]amino]carbonyl]-3-thiazolidinecarboxylic Acid 3-Ethyl ester]: the IC50 is 50 to 750 nM.
In the case of `CCOC(=O)N1CSC[C@@H]1C(=O)N[C@@H](Cc1ccc(NC(=O)c2cccnc2)cc1)C(=O)O` [Example 271, (4S)-4-[[[(1S)-1-Carboxy-2-[4-[(3-pyridinylcarbonyl)amino]phenyl]ethyl]amino]carbonyl]-3-thiazolidinecarboxylic Acid 3-Ethyl Ester], the IC50 was in the range of 50 to 750 nM.
As for `CCOC(=O)N1CSC[C@@H]1C(=O)N[C@@H](Cc1ccc(NC(=O)c2ccc(OC)cc2)cc1)C(=O)O` [Example 272, (4S)-4-[[[(1S)-1-Carboxy-2-[4-[(4-methoxybenzoyl)amino]phenyl]ethyl]amino]carbonyl]-3-thiazolidinecarboxylic Acid 3-Ethyl Ester], the IC50 is 50 to 750 nM.
For `CCOC(=O)N1CSC[C@@H]1C(=O)N[C@@H](Cc1ccc(NC(=O)c2ccc(C)cc2)cc1)C(=O)O` [Example 273, (4S)-4-[[[(1S)-1-Carboxy-2-[4-[(4-methylbenzoyl)amino]phenyl]ethyl]amino]carbonyl]-3-thiazolidinecarboxylic Acid 3-Ethyl Ester], the IC50 is no less than 750 nM.
Turning to `CCOC(=O)N1CSC[C@@H]1C(=O)N[C@@H](Cc1ccc(NC(=O)c2ccccc2C(F)(F)F)cc1)C(=O)O` [Example 274, (4S)-4-[[[(1S)-1-Carboxy-2-[4-[[2-(trifluoromethyl)benzoyl]amino]phenyl]ethyl]amino]carbonyl]-3-thiazolidinecarboxylic Acid 3-Ethyl Ester], the IC50 fell in the range of 50 to 750 nM.
On to `CCOC(=O)N1CSC[C@@H]1C(=O)N[C@@H](Cc1ccc(NC(=O)c2c(Cl)cc(Cl)cc2Cl)cc1)C(=O)O` [Example 275, (4S)-4-[[[(1S)-1-Carboxy-2-[4-[(2,4,6-trichlorobenzoyl)amino]phenyl]ethyl]amino]-carbonyl]-3-thiazolidinecarboxylic Acid 3-Ethyl Ester], for which the IC50 is no more than 50 nM.
As for `CCOC(=O)N1CSC[C@@H]1C(=O)N[C@@H](Cc1ccc(NS(=O)(=O)c2cc(Cl)ccc2Cl)cc1)C(=O)O` [Example 276, (4S)-4-[[[(1S)-1-Carboxy-2-[4-[[(2,5-dichlorophenyl)sulfonyl]amino]phenyl]ethyl]amino]carbonyl]-3-thiazolidinecarboxylic Acid 3-Ethyl Ester], the IC50 was no less than 750 nM.
Under `CCOC(=O)N1CSC[C@@H]1C(=O)N[C@@H](Cc1ccc(NC(=O)Nc2c(Cl)cccc2Cl)cc1)C(=O)O` [Example 277, (4S)-4-[[[(1S)-1-Carboxy-2-[4-[[[(2,6-dichlorophenyl)amino]carbonyl]amino]phenyl]ethyl]amino]carbonyl]-3-thiazolidinecarboxylic Acid 3-Ethyl Ester] stands no less than 750 nM; under `CCOC(=O)N1CSC[C@@H]1C(=O)N[C@@H](Cc1ccc(C(=O)Nc2c(Cl)cc(Cl)cc2Cl)cc1)C(=O)O` [Example 278, (4S)-4-[[[(1S)-1-Carboxy-2-[4-[[(2,4,6-trichlorophenyl)amino]carbonyl]phenyl]ethyl]amino]carbonyl]-3-thiazolidinecarboxylic Acid 3-Ethyl Ester], 50 to 750 nM; under `O=C(Nc1ccc(C[C@H](NC(=O)C2CS[C@H]3CNC(=O)N23)C(=O)O)cc1)c1c(Cl)cccc1Cl` (stereo partly drawn) [Example 279, 4-[(2,6-Dichlorobenzoyl)amino]-N-[[(7aS)-hexahydro-5-oxoimidazo[5,1-b]thiazol-3-yl]carbonyl]-L-phenylalanine], 50 to 750 nM.
Under `O=C(Nc1ccc(C[C@H](NC(=O)C2CS[C@@H]3CNC(=O)N23)C(=O)O)cc1)c1c(Cl)cccc1Cl` (stereo partly drawn) [Example 280, 4-[(2,6-Dichlorobenzoyl)amino]-N-[[(7aR)-hexahydro-5-oxoimidazo[5,1-b]thiazol-3-yl]carbonyl]-L-phenylalanine] stands 50 to 750 nM.
With `CCOC(=O)N1C(c2ccncc2)SC[C@@H]1C(=O)N[C@@H](Cc1ccc(NC(=O)c2c(Cl)cccc2Cl)cc1)C(=O)O` (stereo partly drawn) [Example 283, (4S)-4-[[[(1S)-1-Carboxy-2-[4-[(2,6-dichlorobenzoyl)amino]phenyl]ethyl]amino]carbonyl]-2-(4-pyridinyl)-3-thiazolidinecarboxylic Acid 3-Ethyl Ester], the IC50 is 50 to 750 nM.
For the molecule `NC(=O)[C@H](Cc1ccc(OCc2c(Cl)cccc2Cl)cc1)NC(=O)[C@H]1CSCN1C(=O)OCCN1CCCC1` [Example 284], the IC50 was 50 to 750 nM.
As for `O=C(O)[C@H](Cc1ccc(OCc2c(Cl)cccc2Cl)cc1)NC(=O)[C@H]1CSCN1C(=O)OC1CCOC1` (stereo partly drawn) [Example 285, (4S)-4-[[[(1S)-1-Carboxy-2-[4-[(2,6-dichlorophenyl)methoxy]phenyl]ethyl]amino]carbonyl]-3-thiazolidinecarboxylic Acid 3-(3-Tetrahydrofuranyl)ester], the IC50 lay in the range of 50 to 750 nM.
Turning to `NC(=O)[C@H](Cc1ccc(OCc2c(Cl)cccc2Cl)cc1)NC(=O)[C@H]1CSCN1C(=O)OCCN1CCCCC1` [Example 286, (4S)-4-[[[(1S)-2-Amino-1-[[4-[(2,6-dichlorophenyl)methoxy]phenyl]methyl]-2-oxoethyl]amino]carbonyl]-3-thiazolidinecarboxylic Acid 3-[2-(1-Piperidinyl)ethyl]ester], the IC50 was in the range of 50 to 750 nM.
